From PubChem BioAssay (NCI)
Values joined by “and” are separate entries in the source; they are usually repeats but may differ in a detail not shown here. Equal entries are not always repeated.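 Each compound was tested at five concentrations against cells in 96-well plates for 48 hours. GI50 marks 50% less growth. TGI: total growth inhibition.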

Key:
Experiment in all cases: NCI-60 cell line screen, 48 h
[1] = system: SNB-75 CNS
[2] = system: SK-MEL-5 melanoma
[3] = system: HL-60(TB) leukemia
[4] = system: XF 498 CNS
[5] = system: SK-MEL-2 melanoma
[6] = system: UACC-62 melanoma
[7] = system: EKVX NSCLC
[8] = system: UACC-257 melanoma
[9] = system: KM20L2 colon
[10] = system: NCI/ADR-RES ovarian

`O=S1c2ccccc2N=C(c2cccs2)CC1c1ccccc1O` (stereo unspecified) showed a TGI [1] greater than 100 µM, a TGI [2] greater than 100 µM and a TGI [3] greater than 100 µM. It also gave a TGI [4] greater than 100 µM, a TGI [5] greater than 100 µM and a TGI [6] greater than 100 µM. It also gave a TGI [7] greater than 100 µM, a TGI [8] greater than 100 µM and a TGI [9] greater than 100 µM.

`NC1=NN(c2ccccc2)C(=O)C1/C(=N\NC(=O)c1cc2ccccc2cc1O)C(=O)Nc1ccc(Cl)c(Cl)c1` (stereo unspecified) was tested, and the TGI [1] was greater than 100 µM, the TGI [2] was 79.4 µM and the TGI [3] was 39.8 µM. For the same compound, the TGI [4] was 71.6 µM, the TGI [5] was greater than 100 µM and the TGI [6] was 44.1 µM. The TGI [7] was 63.6 µM, the TGI [8] was 84 µM and the TGI [9] was 65.8 µM.

Compound `COC(=O)/C(=C1\OC(=O)C(c2ccc(Cl)cc2)=C1O)c1ccc(Cl)cc1` has a TGI [1] of 73 µM, a TGI [3] of 32.9 µM and a TGI [4] of 36.1 µM. The TGI [6] was 56.9 µM, the TGI [7] was 72.5 µM and the TGI [8] was 48.8 µM. For the same compound, the TGI [9] was 88.4 µM.

With `O=C1/C(=C/c2ccc(C(=O)O)cc2)CNC/C1=C\c1ccc(C(=O)O)cc1` the TGI [1] was greater than 100 µM, the TGI [2] was greater than 100 µM and the TGI [3] was greater than 100 µM. It also gave a TGI [4] greater than 100 µM, a TGI [6] greater than 100 µM and a TGI [8] greater than 100 µM. It also gave a TGI [9] greater than 100 µM.

In the case of `C/C(COc1ccccc1)=N\NC(N)=S`, the TGI [1] is reported as greater than 100 µM, the TGI [2] is reported as greater than 100 µM and the TGI [3] is reported as greater than 100 µM. For the same compound, the TGI [4] was greater than 100 µM, the TGI [5] was greater than 100 µM and the TGI [6] was greater than 100 µM. The TGI [7] was greater than 100 µM, the TGI [8] was greater than 100 µM and the TGI [9] was greater than 100 µM.

`O=Cc1cc2sc(C=O)cc2s1` showed a TGI [1] greater than 100 µM, a TGI [2] greater than 100 µM and a TGI [3] greater than 100 µM. For the same compound, the TGI [4] was greater than 100 µM, the TGI [6] was greater than 100 µM and the TGI [7] was greater than 100 µM. For the same compound, the TGI [8] was greater than 100 µM and the TGI [9] was greater than 100 µM.

With `CC(C)(C)c1cc([Si](C)(C)C)c(C#N)c([Si](C)(C)C)c1` the TGI [1] was greater than 100 µM, the TGI [3] was 44.2 µM and the TGI [4] was 67 µM. The TGI [5] was greater than 100 µM, the TGI [6] was greater than 100 µM and the TGI [7] was greater than 100 µM. For the same compound, the TGI [8] was greater than 100 µM and the TGI [9] was greater than 100 µM.

Compound `CCn1c(C)nc([N+](=O)[O-])c1Sc1ncc[nH]1` has a TGI [1] greater than 100 µM, a TGI [2] greater than 100 µM and a TGI [4] greater than 100 µM. The TGI [5] was greater than 100 µM, the TGI [6] was greater than 100 µM and the TGI [7] was greater than 100 µM. For the same compound, the TGI [8] was greater than 100 µM.

Compound `Cc1cc(NCCCCCCCCNc2cc(C)nc3cc(N(C)C)ccc23)c2ccc(N(C)C)cc2n1` has a TGI [3] of 6.11 µM, a TGI [4] of 7.3 µM and a TGI [7] of 28.5 µM. The TGI [8] was 23.1 µM and the TGI [9] was 27.3 µM.

In the case of `Clc1cc2ns[s+]c2cc1Cl`, the TGI [1] is reported as greater than 64.2 µM, the TGI [2] is reported as greater than 52 µM and the TGI [3] is reported as greater than 87.2 µM. For the same compound, the TGI [4] was greater than 100 µM, the TGI [5] was greater than 100 µM and the TGI [6] was greater than 100 µM. The TGI [7] was greater than 100 µM, the TGI [8] was greater than 100 µM and the TGI [9] was greater than 100 µM.

Compound `O=C(NNC(=O)/C(=C/c1cccc([N+](=O)[O-])c1)NC(=O)c1ccccc1)Nc1ccc(Cl)cc1` has a TGI [1] of 36 µM, a TGI [2] of 25.7 µM and a TGI [3] of 30.3 µM. The TGI [4] was 26.6 µM, the TGI [5] was 25.5 µM and the TGI [6] was 30.3 µM. For the same compound, the TGI [7] was 44 µM, the TGI [8] was 34.4 µM and the TGI [9] was 32.4 µM.

`CC1=NN(c2ccccc2)C(=O)C1N=Nc1ccc(Br)cc1C` (stereo unspecified) was tested, and the TGI [1] was 48.3 µM, the TGI [2] was greater than 100 µM and the TGI [3] was greater than 100 µM. The TGI [5] was greater than 100 µM, the TGI [6] was greater than 100 µM and the TGI [7] was greater than 100 µM. The TGI [8] was greater than 100 µM and the TGI [9] was greater than 100 µM.

With `Cc1cc(C(=O)NOCCO)c(Nc2ccc(I)cc2F)n(C)c1=O` the GI50 [1] was > 10 µM and 17.1 µM, the TGI [1] was greater than 100 µM and the GI50 [2] was less than 0.01 µM. For the same compound, the TGI [2] was greater than 100 µM, the GI50 [3] was 0.00173 µM and < 0.01 µM and the TGI [3] was greater than 49.6 µM. The GI50 [5] was 0.00299 µM and < 0.01 µM, the GI50 [6] was 0.0015 µM and < 0.01 µM and the TGI [6] was 0.0116 µM and 0.0221 µM. The GI50 [10] was greater than 90.6 µM, the TGI [10] was greater than 100 µM and the GI50 [7] was 0.0233 µM. For the same compound, the TGI [7] was greater than 10 µM, the GI50 [8] was 0.00186 µM and < 0.01 µM and the TGI [8] was 0.0128 µM and < 0.0197 µM.

`Nc1ncnc2c1ncn2Cc1ccc(CCl)cc1` gave a GI50 [1] of 22.3 µM, a TGI [1] of 62.6 µM and a GI50 [2] of 15.2 µM. It also gave a TGI [2] of 28.5 µM, a GI50 [3] of 54.7 µM and a TGI [3] greater than 100 µM. For the same compound, the GI50 [5] was 32.6 µM, the TGI [5] was 97.5 µM and the GI50 [6] was 19.6 µM. The TGI [6] was 34.6 µM, the GI50 [10] was 18.7 µM and the TGI [10] was 44.5 µM. The GI50 [7] was 17 µM, the TGI [7] was 34.9 µM and the GI50 [8] was 17.9 µM. It also gave a TGI [8] of 34.8 µM.

Compound `COc1cc(-c2cc(-c3ccc(Nc4nc(Nc5ccc(Cl)cc5)nc(Nc5ccc(Cl)cc5)n4)cc3)no2)cc(OC)c1OC` has a GI50 [1] of 12.7 µM, a TGI [1] greater than 100 µM and a GI50 [2] of 4.47 µM. It also gave a TGI [2] of 58.1 µM, a GI50 [3] of 2.32 µM and a TGI [3] of 55.5 µM. It also gave a GI50 [5] of 5.04 µM, a TGI [5] greater than 100 µM and a GI50 [6] of 71.7 µM. The TGI [6] was greater than 100 µM, the GI50 [10] was 11.3 µM and the TGI [10] was greater than 100 µM. The GI50 [7] was 24.9 µM, the TGI [7] was greater than 100 µM and the GI50 [8] was 23.5 µM. For the same compound, the TGI [8] was greater than 100 µM.

Compound `O=c1[nH]c(C2CCCCC2)nc2ccc(Cl)cc12` has a TGI [1] greater than 100 µM, a TGI [2] greater than 100 µM and a TGI [5] greater than 100 µM. For the same compound, the TGI [6] was greater than 100 µM, the TGI [7] was greater than 100 µM and the TGI [8] was greater than 100 µM. It also gave a TGI [9] greater than 100 µM.

In the case of `CNC(=O)c1cc(Oc2ccc(NC(=O)Nc3ccc(Cl)c(C(F)(F)F)c3)cc2)ccn1`, the GI50 [1] is reported as 1.86 µM and 2.65 µM and 2.73 µM, the TGI [1] is reported as > 10 µM and 8.98 µM and 8.78 µM and the GI50 [2] is reported as 1.43 µM and 1.61 µM and 1.57 µM. For the same compound, the TGI [2] was 3.14 µM and 2.97 µM and 3.25 µM, the GI50 [3] was 0.703 µM and 1.53 µM and the TGI [3] was 3.8 µM and 14.1 µM. The GI50 [5] was 1.16 µM and 1.31 µM and 1.77 µM, the TGI [5] was 3.57 µM and 2.93 µM and 6.22 µM and the GI50 [6] was 2.4 µM and 1.96 µM and 1.7 µM. The TGI [6] was 8.52 µM and 5.23 µM and 4.49 µM, the GI50 [10] was 3.06 µM and 2.63 µM and 2.65 µM and the TGI [10] was > 10 µM and 7.89 µM and 15.7 µM. For the same compound, the GI50 [7] was 3.24 µM and 2.51 µM and 2.67 µM, the TGI [7] was > 10 µM and 7.86 µM and 13 µM and the GI50 [8] was 2.14 µM and 1.99 µM and 2.2 µM. For the same compound, the TGI [8] was 6.41 µM and 5.16 µM and 6.15 µM.

`Clc1ccc(Nc2nnc(COc3ccccc3)c3ccccc23)cc1` gave a GI50 [1] of 0.498 µM, a TGI [1] of 6.65 µM and a GI50 [2] of 1.08 µM. For the same compound, the TGI [2] was 4.56 µM, the GI50 [3] was 3.56 µM and the TGI [3] was 11.9 µM. The GI50 [5] was 0.971 µM, the TGI [5] was 5.13 µM and the GI50 [6] was 1.24 µM. The TGI [6] was 5.69 µM, the GI50 [10] was 2.62 µM and the TGI [10] was 16.6 µM. It also gave a GI50 [7] of 0.679 µM, a TGI [7] of 7.32 µM and a GI50 [8] of 2.54 µM. It also gave a TGI [8] of 5.82 µM.
